Source: patent publication US10670605B2, “Cysteine reactive probes and uses thereof” (The Scripps Research Institute, priority 2015, dated 2020)
Structures can show the parent of a compound that is named as a salt.

How the values were obtained:
Experiment in all cases: isoTOP-ABPP of compound-treated primary human T cells
Format in all cases: cell-based
[1] = target: Cys residues in primary human T cells (Homo sapiens, UniProt O14976); details: GAK C87 (O14976)
[2] = target: T1, Cys residues in primary human T cells (Homo sapiens, UniProt P00813); details: ADA C75 (P00813)
T1 sequence (P00813 1-363): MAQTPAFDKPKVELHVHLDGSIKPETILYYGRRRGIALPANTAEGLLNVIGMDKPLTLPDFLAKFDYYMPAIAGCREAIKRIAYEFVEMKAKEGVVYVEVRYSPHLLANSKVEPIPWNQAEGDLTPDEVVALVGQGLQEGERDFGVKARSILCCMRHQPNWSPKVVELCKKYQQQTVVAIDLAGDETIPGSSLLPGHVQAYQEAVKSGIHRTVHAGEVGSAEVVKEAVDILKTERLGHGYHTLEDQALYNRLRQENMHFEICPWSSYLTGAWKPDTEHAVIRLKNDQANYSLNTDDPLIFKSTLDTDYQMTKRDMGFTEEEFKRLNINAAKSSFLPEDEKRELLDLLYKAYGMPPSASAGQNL

[3] = target: T2, Cys residues in primary human T cells (Homo sapiens, UniProt P49588); details: AARS C773 (P49588)
T2 sequence (P49588 1-968): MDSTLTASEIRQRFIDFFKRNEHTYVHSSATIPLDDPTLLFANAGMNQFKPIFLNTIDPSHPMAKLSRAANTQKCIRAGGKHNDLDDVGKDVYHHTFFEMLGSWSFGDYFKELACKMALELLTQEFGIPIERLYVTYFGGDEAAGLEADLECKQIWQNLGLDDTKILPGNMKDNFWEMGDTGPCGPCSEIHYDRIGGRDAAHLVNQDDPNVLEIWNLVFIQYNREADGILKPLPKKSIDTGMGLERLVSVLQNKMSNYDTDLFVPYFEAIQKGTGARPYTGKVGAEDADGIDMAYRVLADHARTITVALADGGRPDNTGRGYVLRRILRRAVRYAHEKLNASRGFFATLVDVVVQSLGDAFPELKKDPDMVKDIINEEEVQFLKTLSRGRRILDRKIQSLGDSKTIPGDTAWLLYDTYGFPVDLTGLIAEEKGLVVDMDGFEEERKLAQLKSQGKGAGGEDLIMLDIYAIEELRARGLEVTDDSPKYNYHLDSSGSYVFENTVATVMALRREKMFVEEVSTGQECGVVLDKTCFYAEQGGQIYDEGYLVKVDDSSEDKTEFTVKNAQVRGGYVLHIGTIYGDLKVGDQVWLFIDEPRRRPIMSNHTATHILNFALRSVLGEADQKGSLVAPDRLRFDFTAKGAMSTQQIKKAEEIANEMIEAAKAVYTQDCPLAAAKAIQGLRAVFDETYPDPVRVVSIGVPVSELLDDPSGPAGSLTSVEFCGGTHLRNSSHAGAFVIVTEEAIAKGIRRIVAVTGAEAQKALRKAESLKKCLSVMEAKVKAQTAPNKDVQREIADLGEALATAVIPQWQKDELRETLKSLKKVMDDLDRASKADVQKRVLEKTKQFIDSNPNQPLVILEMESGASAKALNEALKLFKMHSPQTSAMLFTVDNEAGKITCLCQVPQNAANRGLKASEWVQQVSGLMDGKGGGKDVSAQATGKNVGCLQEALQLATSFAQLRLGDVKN

[4] = target: Cys residues in primary human T cells (Homo sapiens, UniProt Q15005); details: SPCS2 C17 (Q15005)
Cys residues in primary human T cells (Homo sapiens, UniProt Q15005), sequence (Q15005 whole entry): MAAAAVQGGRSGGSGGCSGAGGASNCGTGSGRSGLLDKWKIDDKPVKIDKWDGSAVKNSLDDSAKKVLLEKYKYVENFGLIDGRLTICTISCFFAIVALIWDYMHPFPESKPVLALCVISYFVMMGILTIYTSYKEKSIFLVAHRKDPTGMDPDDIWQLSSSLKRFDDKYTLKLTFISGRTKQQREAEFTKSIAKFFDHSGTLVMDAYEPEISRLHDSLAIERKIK

[5] = target: Cys residues in primary human T cells (Homo sapiens, UniProt Q7Z6Z7); details: HUWE1 C3372 (Q7Z6Z7)
Cys residues in primary human T cells (Homo sapiens, UniProt Q7Z6Z7), sequence (Q7Z6Z7 whole entry): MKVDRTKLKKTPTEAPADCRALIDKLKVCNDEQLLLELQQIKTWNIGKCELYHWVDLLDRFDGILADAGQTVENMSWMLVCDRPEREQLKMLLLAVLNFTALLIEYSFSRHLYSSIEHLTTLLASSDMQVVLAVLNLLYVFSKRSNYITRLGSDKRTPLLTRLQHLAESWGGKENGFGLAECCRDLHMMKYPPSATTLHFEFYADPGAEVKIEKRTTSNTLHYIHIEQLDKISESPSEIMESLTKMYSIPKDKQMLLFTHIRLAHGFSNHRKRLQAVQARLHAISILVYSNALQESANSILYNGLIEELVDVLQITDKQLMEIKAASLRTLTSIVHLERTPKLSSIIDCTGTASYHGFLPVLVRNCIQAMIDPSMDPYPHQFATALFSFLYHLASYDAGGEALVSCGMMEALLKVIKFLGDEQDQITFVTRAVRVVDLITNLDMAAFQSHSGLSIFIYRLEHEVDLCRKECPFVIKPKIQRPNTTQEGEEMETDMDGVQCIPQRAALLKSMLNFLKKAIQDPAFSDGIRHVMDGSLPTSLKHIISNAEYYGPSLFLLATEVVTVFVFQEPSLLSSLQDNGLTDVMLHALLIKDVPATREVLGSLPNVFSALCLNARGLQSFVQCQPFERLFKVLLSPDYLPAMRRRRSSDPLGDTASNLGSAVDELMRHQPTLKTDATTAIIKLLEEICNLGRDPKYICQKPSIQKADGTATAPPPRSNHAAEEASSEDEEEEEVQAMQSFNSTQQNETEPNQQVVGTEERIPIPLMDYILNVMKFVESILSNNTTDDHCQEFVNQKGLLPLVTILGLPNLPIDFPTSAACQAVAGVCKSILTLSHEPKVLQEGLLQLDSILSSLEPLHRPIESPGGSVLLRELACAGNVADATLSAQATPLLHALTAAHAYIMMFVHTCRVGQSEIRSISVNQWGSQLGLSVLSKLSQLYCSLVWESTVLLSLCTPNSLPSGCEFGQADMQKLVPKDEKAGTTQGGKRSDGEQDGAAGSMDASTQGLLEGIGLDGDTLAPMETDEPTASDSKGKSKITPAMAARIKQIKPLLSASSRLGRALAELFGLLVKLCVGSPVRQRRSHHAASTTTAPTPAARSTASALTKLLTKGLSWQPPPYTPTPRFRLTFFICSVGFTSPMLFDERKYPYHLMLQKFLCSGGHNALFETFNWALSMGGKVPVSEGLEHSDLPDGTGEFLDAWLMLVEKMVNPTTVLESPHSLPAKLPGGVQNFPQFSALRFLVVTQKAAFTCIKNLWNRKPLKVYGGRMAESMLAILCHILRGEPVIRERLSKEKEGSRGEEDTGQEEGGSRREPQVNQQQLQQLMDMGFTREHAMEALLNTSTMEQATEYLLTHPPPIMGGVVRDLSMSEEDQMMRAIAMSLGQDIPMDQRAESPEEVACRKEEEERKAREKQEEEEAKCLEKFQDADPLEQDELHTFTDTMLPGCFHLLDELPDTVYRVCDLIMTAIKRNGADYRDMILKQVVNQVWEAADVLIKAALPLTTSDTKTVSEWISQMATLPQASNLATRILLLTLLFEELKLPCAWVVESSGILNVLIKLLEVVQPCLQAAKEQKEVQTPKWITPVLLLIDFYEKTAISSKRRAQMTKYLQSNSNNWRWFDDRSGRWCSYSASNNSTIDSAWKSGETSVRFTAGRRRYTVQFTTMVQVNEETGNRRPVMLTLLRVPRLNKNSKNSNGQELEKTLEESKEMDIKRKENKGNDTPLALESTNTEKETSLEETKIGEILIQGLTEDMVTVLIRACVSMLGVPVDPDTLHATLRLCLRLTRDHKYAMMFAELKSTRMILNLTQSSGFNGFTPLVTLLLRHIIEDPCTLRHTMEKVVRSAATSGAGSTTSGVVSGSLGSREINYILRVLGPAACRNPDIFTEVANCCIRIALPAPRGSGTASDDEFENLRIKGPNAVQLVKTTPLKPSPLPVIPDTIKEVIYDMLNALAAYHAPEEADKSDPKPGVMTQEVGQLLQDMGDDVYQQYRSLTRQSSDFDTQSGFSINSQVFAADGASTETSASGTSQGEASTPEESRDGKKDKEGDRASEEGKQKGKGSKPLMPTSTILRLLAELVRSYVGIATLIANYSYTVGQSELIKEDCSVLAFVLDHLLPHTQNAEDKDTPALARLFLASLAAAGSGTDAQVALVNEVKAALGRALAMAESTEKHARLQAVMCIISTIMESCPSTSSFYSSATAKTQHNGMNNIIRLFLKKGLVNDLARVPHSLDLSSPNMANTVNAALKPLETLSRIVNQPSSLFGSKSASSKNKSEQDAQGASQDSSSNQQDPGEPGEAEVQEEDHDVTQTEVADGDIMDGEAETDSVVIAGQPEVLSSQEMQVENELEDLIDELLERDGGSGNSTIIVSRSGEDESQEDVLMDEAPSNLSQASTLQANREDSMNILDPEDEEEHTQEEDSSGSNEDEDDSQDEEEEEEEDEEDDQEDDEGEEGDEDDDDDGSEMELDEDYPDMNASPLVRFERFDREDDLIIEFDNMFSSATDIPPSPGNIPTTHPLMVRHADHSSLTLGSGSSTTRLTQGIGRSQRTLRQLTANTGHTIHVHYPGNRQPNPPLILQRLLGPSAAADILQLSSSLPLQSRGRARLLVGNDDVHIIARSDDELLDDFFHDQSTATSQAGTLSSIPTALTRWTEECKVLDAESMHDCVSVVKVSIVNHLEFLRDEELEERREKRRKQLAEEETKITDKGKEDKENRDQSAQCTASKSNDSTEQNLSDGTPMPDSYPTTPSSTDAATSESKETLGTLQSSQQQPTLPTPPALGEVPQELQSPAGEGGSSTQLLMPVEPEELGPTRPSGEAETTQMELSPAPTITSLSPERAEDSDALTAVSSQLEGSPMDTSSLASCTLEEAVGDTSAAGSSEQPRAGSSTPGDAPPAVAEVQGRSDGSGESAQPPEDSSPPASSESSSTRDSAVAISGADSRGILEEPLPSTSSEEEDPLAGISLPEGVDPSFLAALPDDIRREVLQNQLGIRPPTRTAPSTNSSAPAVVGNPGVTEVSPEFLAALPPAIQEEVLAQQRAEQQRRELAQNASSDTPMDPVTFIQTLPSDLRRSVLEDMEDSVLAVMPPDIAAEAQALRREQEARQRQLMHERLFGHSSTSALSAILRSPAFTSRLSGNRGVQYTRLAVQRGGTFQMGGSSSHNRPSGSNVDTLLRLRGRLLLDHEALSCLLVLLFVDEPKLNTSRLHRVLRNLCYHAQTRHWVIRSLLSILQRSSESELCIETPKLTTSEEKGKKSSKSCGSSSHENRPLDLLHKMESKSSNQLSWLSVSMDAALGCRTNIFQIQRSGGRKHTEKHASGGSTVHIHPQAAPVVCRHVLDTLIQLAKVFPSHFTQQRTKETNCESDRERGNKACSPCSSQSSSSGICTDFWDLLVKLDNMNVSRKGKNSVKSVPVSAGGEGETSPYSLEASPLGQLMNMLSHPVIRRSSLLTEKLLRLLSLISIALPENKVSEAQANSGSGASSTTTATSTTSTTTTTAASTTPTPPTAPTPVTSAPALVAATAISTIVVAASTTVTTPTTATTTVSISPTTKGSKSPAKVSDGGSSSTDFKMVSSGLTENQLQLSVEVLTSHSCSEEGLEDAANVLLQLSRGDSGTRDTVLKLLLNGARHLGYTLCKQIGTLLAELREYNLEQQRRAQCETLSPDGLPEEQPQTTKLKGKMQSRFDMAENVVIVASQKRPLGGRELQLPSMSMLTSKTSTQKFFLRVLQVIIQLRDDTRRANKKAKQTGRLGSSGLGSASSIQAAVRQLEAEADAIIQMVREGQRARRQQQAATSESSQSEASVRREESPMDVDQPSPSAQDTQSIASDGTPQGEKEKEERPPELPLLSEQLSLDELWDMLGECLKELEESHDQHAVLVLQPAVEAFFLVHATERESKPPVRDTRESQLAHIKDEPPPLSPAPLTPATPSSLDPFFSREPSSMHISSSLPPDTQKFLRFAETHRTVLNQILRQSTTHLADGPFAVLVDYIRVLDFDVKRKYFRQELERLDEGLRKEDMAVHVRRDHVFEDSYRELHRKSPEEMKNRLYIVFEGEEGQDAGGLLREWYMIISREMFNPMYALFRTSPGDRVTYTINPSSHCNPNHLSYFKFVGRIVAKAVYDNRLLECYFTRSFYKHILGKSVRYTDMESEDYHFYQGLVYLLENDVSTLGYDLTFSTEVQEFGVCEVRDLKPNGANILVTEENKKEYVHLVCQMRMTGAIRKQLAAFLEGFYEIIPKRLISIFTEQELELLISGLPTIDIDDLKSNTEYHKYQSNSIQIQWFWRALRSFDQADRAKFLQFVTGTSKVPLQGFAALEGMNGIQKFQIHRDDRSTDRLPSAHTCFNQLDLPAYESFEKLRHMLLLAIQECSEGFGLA

[6] = target: Cys residues in primary human T cells (Homo sapiens, UniProt Q8N0Z8); details: PUSL1 C292 (Q8N0Z8); DMF 50 μM 4h
[7] = target: Cys residues in primary human T cells (Homo sapiens, UniProt Q8N2G8); details: GHDC C502 (Q8N2G8)
Cys residues in primary human T cells (Homo sapiens, UniProt Q8N2G8), sequence (Q8N2G8 18-530): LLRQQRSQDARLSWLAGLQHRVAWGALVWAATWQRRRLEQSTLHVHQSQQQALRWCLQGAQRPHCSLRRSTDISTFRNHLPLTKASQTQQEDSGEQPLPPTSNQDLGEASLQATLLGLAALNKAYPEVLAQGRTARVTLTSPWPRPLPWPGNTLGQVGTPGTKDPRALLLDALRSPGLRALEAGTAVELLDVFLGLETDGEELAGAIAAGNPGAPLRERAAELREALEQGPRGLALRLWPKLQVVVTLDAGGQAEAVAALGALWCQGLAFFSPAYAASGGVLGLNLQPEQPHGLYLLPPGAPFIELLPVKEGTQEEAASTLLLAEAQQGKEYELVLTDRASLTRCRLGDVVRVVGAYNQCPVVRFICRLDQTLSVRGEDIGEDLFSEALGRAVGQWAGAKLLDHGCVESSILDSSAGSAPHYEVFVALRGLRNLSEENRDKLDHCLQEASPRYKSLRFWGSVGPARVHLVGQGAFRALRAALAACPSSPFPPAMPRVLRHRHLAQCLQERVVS

[8] = target: Cys residues in primary human T cells (Homo sapiens, UniProt Q96FV9); details: THOC1 C49 (Q96FV9)
[9] = target: T3, Cys residues in primary human T cells (Homo sapiens, UniProt Q9NRG0); details: CHRAC1 C55 (Q9NRG0)
T3 sequence (Q9NRG0 1-131): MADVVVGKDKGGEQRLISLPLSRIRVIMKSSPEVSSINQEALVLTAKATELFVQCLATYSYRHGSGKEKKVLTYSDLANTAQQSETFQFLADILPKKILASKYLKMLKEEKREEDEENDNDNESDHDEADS

[10] = target: T4, Cys residues in primary human T cells (Homo sapiens, UniProt Q9UL40); details: ZNF346 C68 (Q9UL40)
T4 sequence (Q9UL40 1-294): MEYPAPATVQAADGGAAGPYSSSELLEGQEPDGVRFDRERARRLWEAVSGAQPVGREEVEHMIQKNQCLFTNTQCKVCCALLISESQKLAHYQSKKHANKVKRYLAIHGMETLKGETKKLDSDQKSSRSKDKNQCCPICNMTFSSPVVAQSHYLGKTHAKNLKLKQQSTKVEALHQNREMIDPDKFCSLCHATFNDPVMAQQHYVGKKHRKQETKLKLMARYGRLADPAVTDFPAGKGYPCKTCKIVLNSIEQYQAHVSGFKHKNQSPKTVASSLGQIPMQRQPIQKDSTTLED

COC(=O)/C=C/C(=O)OC [DMF, dimethyl fumarate]
R value (DMSO/DMF) ([1]; DMF 10 μM 4h): 1.36 | R value (DMSO/DMF) ([1]; DMF 50 μM 2h): 4.79 | R value (DMSO/DMF) ([2]; DMF 10 μM 4h): 2.29 | R value (DMSO/DMF) ([2]; DMF 50 μM 1h): 2.51 | R value (DMSO/DMF) ([2]; DMF 50 μM 2h): 5.08 | R value (DMSO/DMF) ([2]; DMF 50 μM 4h): 20 | R value (DMSO/DMF) ([3]; DMF 10 μM 4h): 2.84 | R value (DMSO/DMF) ([3]; DMF 50 μM 1h): 9.34 | R value (DMSO/DMF) ([3]; DMF 50 μM 2h): 10.16 | R value (DMSO/DMF) ([3]; DMF 50 μM 4h): 12.75 | R value (DMSO/DMF) ([4]; DMF 10 μM 4h): 1.42 | R value (DMSO/DMF) ([4]; DMF 25 μM 4h): 2.41 | R value (DMSO/DMF) ([4]; DMF 50 μM 1h): 2.25 | R value (DMSO/DMF) ([4]; DMF 50 μM 2h): 3.86 | R value (DMSO/DMF) ([4]; DMF 50 μM 4h): 5.09 | R value (DMSO/DMF) ([5]; DMF 10 μM 4h): 1.58 | R value (DMSO/DMF) ([5]; DMF 50 μM 1h): 2.28 | R value (DMSO/DMF) ([5]; DMF 50 μM 2h): 4.43 | R value (DMSO/DMF) ([5]; DMF 50 μM 4h): 10.48 | R value (DMSO/DMF) [6]: 4.68 | R value (DMSO/DMF) ([7]; DMF 50 μM 1h): 4.23 | R value (DMSO/DMF) ([7]; DMF 50 μM 2h): 20 | R value (DMSO/DMF) ([8]; DMF 50 μM 1h): 3.93 | R value (DMSO/DMF) ([8]; DMF 50 μM 2h): 5.7 | R value (DMSO/DMF) ([9]; DMF 10 μM 4h): 5.07 | R value (DMSO/DMF) ([9]; DMF 50 μM 1h): 12.59 | R value (DMSO/DMF) ([9]; DMF 50 μM 2h): 11.72 | R value (DMSO/DMF) ([10]; DMF 10 μM 4h): 1.98 | R value (DMSO/DMF) ([10]; DMF 50 μM 1h): 2.5 | R value (DMSO/DMF) ([10]; DMF 50 μM 2h): 3.91 | R value (DMSO/DMF) ([10]; DMF 50 μM 4h): 4.6
